Tests used:
purified TAFI (TAFIa) = biological target: T1, purified TAFI (TAFIa) (Homo sapiens, UniProt Q96IY4); test: Hydrolysis of MxAFR or MxPAFFK by activated purified TAFI solution; type: biochemical; settings: purified TAFI 18 μg/ml
T1 sequence (Q96IY4 115-423): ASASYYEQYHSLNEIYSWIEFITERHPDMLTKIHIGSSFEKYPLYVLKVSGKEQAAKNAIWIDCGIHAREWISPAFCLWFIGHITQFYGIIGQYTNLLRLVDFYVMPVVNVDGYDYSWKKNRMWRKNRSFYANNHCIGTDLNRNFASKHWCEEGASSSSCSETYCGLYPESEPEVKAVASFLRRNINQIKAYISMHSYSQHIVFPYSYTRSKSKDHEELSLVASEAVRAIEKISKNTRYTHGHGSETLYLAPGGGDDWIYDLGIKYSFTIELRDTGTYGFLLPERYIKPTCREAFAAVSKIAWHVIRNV
Protocol: 2/ The method of the invention was then applied to a solution of purified TAFI either with a substrate with formula (I) (MxPAFFK) or with MxAFR to verify that TAFIa nevertheless hydrolyzes a compound with formula (I). Coagulation activation was triggered by the thrombin-thrombomodulin-CaCl2 complex (see protocol in Example N^o 2).
The reduction in coloration of each of the two samples was followed using a spectrophotometer. • a) Starting samples: purified TAFI solution, 18 μg/ml (diluted in Hepes buffer); • b) activating coagulation; • c) adding 27 mM MxAFR or MXPAFFK (control), concentration of MxAFFK; • d) adding CPA to the sample containing the MxPAFFK; • e) read OD at 382 nm.

TAFI = settings: per 1 mg of PCI; as indicated by the manufacturer (Calbiochem); cited from earlier work
[1] = biological target: T2, porcine pancreatic carboxypeptidase B (Sus scrofa, UniProt P09955); test: Decolorization of single amino acid substrate AAFR by porcine pancreatic carboxypeptidase B; type: biochemical; settings: porcine CPB 5.2 mol/l in Hepes buffer; 5 mM AAFR; at 382 nm
T2 construct: purchased Sigma C9584; host or cells: porcine pancreas
T2 sequence (P09955 111-416): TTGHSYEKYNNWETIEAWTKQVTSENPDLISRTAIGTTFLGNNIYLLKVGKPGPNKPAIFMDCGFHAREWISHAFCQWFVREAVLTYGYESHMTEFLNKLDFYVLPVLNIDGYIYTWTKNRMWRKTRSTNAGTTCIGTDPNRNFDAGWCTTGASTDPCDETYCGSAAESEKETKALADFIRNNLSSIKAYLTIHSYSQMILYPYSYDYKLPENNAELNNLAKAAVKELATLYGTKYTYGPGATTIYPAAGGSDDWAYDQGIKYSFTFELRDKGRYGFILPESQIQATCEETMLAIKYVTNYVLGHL
Protocol: (§1) This substrate was constituted by a single amino acid carrying an anizylazoformyl chromophoric radical (CH3OC6H4—N═N—CO— portion). The amino acid selected was arginine, a basic amino acid normally hydrolyzed by carboxypeptidases B (1).
(§2) This substrate (0.25 mM) was brought into the presence of either a sample of plasma TAFI or a solution of porcine pancreatic carboxypeptidase B (Sigma, Reference: C9584), […].
(§3) The reduction in coloration of each of the two samples was followed using a spectrophotometer. Each sample was treated using the protocol below: • a) Starting sample: • plasma TAFI (present in a normal plasma pool—diluted to 1/20); or • porcine pancreatic carboxypeptidase B, […] (in Hepes buffer); • b) activation with thrombin-thrombomodulin-CaCl2 complex (see Example N^o 2) for the plasma TAFI sample; • c) addition of 5 mM AAFR; • d) read OD at 382 nm.

plasma TAFI (TAFIa) = biological target: T3, plasma TAFI (TAFIa) (Homo sapiens, UniProt Q96IY4); test: Decolorization of single amino acid substrate AAFR by activated plasma TAFI; type: biochemical; settings: compared with pancreatic CPB
T3 construct: from tissue; host or cells: normal plasma pool, diluted 1/20
T3 sequence (Q96IY4 115-423): T1 sequence (Q96IY4 115-423)
Protocol: as §1, §2, §3

Hydrolysis by activated TAFI (conclusion) (purified TAFI (TAFIa)) | Final OD [1] | Starting OD [1] | Hydrolysis by activated TAFI (conclusion) (plasma TAFI (TAFIa)) | Compound | Amount of TAFI (50 U/mg) inhibited at 50% by 1 mg of PCI (TAFI)
active | – | – | – | COc1ccc(/N=N/C(=O)NC(Cc2ccccc2)C(=O)NC(CCCCN)C(=O)O)cc1 (stereo not drawn) [MxPAFFK, 4-metboxyphenylazoformylphenylalanyllysine] | –
– | – | – | – | PCI: Carboxypeptidase Inhibitor from Potato Tubers, specific TAFI inhibitor (Calbiochem ref 217359) (QQHADPICNKPCKTHDDCSGAWFCQACWNSARTCGPYVG; UniProt P01075 1-39, looked up) | about 8 mg
does not hydrolyze | 0.445 | 1.054 | does not hydrolyze | COc1ccc(N=NC(=O)N[C@@H](CCCNC(=N)N)C(=O)O)cc1 [AAFR, 4-methoxyphenylazoformylarginine] | –
